Test results reported in patent US12569502B2, “Use of bile acids and derivatives thereof in preparation of GPR39 agonist” (PEKING UNIVERSITY, priority 2019, dated 2026).
Residue numbers refer to the chain shown, from its start. Where two headings read alike, the source gives them in different places.

What was measured:
GPR39 mutant E116A = biological target: T1, GPR39 mutant E116A (Mus musculus, UniProt Q5U431, E116A); assay: Calcium imaging of GPR39 activation site mutant, transiently transfected cells; format: cell-based; settings: FIG. 7
T1 construct: 3HA (N); P2A-mCherry (C); expressed in transfected cells; host or cells: HEK293T, transient (Lipofectamine 3000)
T1 sequence (Q5U431 1-456 E116A): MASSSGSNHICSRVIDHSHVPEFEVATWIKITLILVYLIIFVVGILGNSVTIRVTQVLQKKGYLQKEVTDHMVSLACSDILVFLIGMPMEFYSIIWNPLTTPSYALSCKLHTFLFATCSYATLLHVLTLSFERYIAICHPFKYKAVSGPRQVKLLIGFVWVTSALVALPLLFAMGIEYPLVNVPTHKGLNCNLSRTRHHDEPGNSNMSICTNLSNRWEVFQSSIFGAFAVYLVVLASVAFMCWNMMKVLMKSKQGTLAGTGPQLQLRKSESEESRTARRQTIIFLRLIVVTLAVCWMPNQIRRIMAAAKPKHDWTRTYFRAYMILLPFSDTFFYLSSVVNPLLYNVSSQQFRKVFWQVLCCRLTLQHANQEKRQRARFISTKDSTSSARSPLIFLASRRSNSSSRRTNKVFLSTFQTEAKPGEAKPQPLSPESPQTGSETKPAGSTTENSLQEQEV
From the text: (§1) GPR39 mutants E90A, F115A, E116A and D330A were firstly constructed according to the method of Example 5.

GPR39 mutant E90A = biological target: T2, GPR39 mutant E90A (Mus musculus, UniProt Q5U431, E90A); assay: as above; format: cell-based; settings: FIG. 7
T2 construct: 3HA (N); P2A-mCherry (C); expressed in transfected cells; host or cells: HEK293T, transient (Lipofectamine 3000)
T2 sequence (Q5U431 1-456 E90A): T1 sequence (Q5U431 1-456 E116A) with E90A, A116E
From the text: as §1

GPR39 mutant F115A = biological target: T3, GPR39 mutant F115A (Mus musculus, UniProt Q5U431, F115A); assay: as above; format: cell-based; settings: FIG. 7
T3 construct: 3HA (N); P2A-mCherry (C); expressed in transfected cells; host or cells: HEK293T, transient (Lipofectamine 3000)
T3 sequence (Q5U431 1-456 F115A): T1 sequence (Q5U431 1-456 E116A) with F115A, A116E
From the text: as §1

[1] = biological target: T4, Motilin receptor (MLNR, NP_001498.1) (Homo sapiens, UniProt O43193); assay: Confocal calcium imaging of Ghrelin receptor family, overexpressed in HEK293T cells; format: cell-based; settings: 200 μM
T4 construct: mCherry; host or cells: HEK293T, transient
Procedure: (§2) According to the transient transfection method of Example 5.2, the 6 receptors of Ghrelin family except GPR39 were overexpressed in HEK293T cells respectively (the expression vectors for these 6 receptors came from the research group of Rao Yi, Peking University), and calcium dye was incubated. An inverted laser confocal microscope (leica Co.) was used to detect the activation of the 6 receptors of Ghrelin family by LCAS. The specific operations were as below: placing the cells to be detected on the microscope stage, detecting the fluorescence signal value of the calcium dye Fluo8 with the 488 nm channel, and detecting the fluorescence signal value of mCherry with the 543 nm channel. All receptors fused to express the red fluorescence protein mCherry, and the expression of receptors was determined by detecting the red fluorescence emitted from mCherry.

[2] = biological target: T5, Neuromedin-U receptor 2 (NMUR2, NP_064552.3) (Homo sapiens, UniProt Q9GZQ4); assay: as above; format: cell-based; settings: 200 μM
T5 construct: mCherry; host or cells: HEK293T, transient
Procedure: as §2

[3] = biological target: T6, Neurotensin receptor 1 (NTSR1, NP_002522.2) (Homo sapiens, UniProt P30989); assay: as above; format: cell-based; settings: 200 μM
T6 construct: mCherry; host or cells: HEK293T, transient
Procedure: as §2

GPR39 [4] = biological target: T7, GPR39 (Homo sapiens, UniProt O43194); settings: cell line that transiently or stably expresses GPR39; read-out: phosphoinositide accumulation EC50; cited from earlier work
T7 sequence (O43194 1-453): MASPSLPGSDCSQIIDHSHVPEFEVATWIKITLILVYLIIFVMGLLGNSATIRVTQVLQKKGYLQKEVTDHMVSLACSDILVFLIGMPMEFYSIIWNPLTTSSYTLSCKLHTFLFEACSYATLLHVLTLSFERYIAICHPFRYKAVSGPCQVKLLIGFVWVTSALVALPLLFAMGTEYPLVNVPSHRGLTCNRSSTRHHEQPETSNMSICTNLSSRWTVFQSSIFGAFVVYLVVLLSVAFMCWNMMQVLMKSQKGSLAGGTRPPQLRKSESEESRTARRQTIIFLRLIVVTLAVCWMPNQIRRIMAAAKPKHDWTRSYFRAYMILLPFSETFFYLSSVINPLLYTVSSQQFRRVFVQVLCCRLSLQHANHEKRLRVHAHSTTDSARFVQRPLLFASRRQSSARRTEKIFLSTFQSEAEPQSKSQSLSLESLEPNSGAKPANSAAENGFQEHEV

GPR39 [5] = biological target: T7, GPR39; settings: cell line that transiently or stably expresses GPR39; read-out: cAMP elevation EC50; cited from earlier work

T5 sequence (Q9GZQ4 whole entry): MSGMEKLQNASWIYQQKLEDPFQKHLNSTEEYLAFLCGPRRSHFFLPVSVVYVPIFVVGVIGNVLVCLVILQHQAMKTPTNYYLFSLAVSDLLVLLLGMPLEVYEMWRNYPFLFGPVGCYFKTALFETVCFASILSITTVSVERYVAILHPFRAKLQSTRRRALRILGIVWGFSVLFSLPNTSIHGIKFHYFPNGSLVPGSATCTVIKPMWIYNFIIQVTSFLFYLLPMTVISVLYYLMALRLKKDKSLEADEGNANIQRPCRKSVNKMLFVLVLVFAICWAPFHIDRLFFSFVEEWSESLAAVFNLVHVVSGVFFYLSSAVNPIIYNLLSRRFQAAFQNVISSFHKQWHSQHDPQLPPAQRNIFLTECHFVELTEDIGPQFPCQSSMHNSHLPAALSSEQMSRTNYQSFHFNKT
T4 sequence (O43193 whole entry): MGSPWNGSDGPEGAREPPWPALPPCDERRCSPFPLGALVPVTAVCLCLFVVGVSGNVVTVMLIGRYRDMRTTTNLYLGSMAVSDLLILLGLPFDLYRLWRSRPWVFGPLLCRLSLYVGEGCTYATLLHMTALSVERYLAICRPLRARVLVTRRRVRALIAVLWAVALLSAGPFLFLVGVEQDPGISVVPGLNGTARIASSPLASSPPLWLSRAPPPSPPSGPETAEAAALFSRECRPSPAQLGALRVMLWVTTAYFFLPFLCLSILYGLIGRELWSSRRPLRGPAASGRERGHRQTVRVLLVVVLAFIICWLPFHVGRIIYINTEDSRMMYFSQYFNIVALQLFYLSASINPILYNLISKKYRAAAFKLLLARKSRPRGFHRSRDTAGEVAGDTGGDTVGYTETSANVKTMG
T6 sequence (P30989 whole entry): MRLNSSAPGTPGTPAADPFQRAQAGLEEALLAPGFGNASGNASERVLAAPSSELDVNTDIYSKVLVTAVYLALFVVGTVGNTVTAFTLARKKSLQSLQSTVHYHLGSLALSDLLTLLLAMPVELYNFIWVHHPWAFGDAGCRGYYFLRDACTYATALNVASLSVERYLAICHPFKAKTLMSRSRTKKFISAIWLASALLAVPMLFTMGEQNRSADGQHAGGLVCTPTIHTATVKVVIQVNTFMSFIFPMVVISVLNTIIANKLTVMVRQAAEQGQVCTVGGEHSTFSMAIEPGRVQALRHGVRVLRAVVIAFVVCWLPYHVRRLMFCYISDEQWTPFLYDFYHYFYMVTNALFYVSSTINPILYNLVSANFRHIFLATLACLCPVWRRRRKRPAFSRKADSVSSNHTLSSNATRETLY

Compound	activation of mutant E116A (calcium imaging) (GPR39 mutant E116A)	activation of mutant E90A (calcium imaging) (GPR39 mutant E90A)	activation of mutant F115A (calcium imaging) (GPR39 mutant F115A)	activation of MLNR (calcium imaging) [1]	activation of NMUR2 (calcium imaging) [2]	activation of NTSR1 (calcium imaging) [3]	EC50 (GPR39 [4])	EC50 (GPR39 [5])
C[C@H](CCC(=O)O)[C@H]1CC[C@H]2[C@@H]3CC[C@@H]4C[C@H](OS(=O)(=O)O)CC[C@]4(C)[C@H]3CC[C@]12C [LCAS]	activated	activated	activated	cannot be activated	cannot be activated	cannot be activated	–	–
[Zn+2] [Zinc ions, reference compound]	–	–	–	–	–	–	22 µM	7.4 µM
